{"source": "ChEMBL document CHEMBL5523757", "about": "“Discovery, Synthesis, and Activity Evaluation of Novel Five-Membered Sulfur-Containing Heterocyclic Nucleosides as Potential Anticancer Agents In Vitro and In Vivo” (J Med Chem, 2024)", "assay_type_in_all_cases": "functional, cell-based", "key": {"[1]": {"system": "HCT-116", "assay": "Antiproliferative activity against human HCT-116 cells assessed as inhibition of cell growth incubated for 48 hrs by CCK-8 assay"}, "[2]": {"system": "HeLa", "assay": "Antiproliferative activity against human HeLa cells assessed as inhibition of cell growth incubated for 48 hrs by CCK-8 assay"}, "[3]": {"system": "MCF7", "assay": "Antiproliferative activity against human MCF7 cells assessed as inhibition of cell growth incubated for 48 hrs by CCK-8 assay"}, "[4]": {"system": "A549", "assay": "Antiproliferative activity against human A549 cells assessed as inhibition of cell growth incubated for 48 hrs by CCK-8 assay", "settings": "a549"}, "[5]": {"system": "HepG2", "assay": "Antiproliferative activity against human HepG2 cells assessed as inhibition of cell growth incubated for 48 hrs by CCK-8 assay"}, "[6]": {"system": "PANC-1", "assay": "Antiproliferative activity against human PANC-1 cells assessed as inhibition of cell growth incubated for 48 hrs by CCK-8 assay"}}, "data": [{"smiles": "CCOC(=O)C[C@H]1CSC[C@]1(C(=O)OCC)n1cnc2c(Cl)nc(F)nc21", "note": "(racemic)", "values": [{"measurement": "IC50", "setting": "[1]; Homo sapiens, HCT-116, 48 h", "result": 11, "unit": "µM"}, {"measurement": "IC50", "setting": "[2]; Homo sapiens, HeLa, 48 h", "result": 8.8, "unit": "µM"}, {"measurement": "IC50", "setting": "[3]; Homo sapiens, MCF7, 48 h", "result": 22.9, "unit": "µM"}]}, {"smiles": "CCOC(=O)C[C@@H]1CSC[C@]1(C(=O)OCC)n1cnc2c(N3CCCC3)nc(Cl)nc21", "note": "(racemic)", "values": [{"measurement": "IC50", "setting": "[1]; Homo sapiens, HCT-116, 48 h", "result": 34, "unit": "µM"}, {"measurement": "IC50", "setting": "[2]; Homo sapiens, HeLa, 48 h", "result": 38.3, "unit": "µM"}, {"measurement": "IC50", "setting": "[3]; Homo sapiens, MCF7, 48 h", "result": "> 50", "unit": "µM"}]}, {"smiles": "CCOC(=O)C[C@H]1CSC[C@]1(C(=O)OCC)n1cnc2c(N3CCCCC3)nc(Cl)nc21", "note": "(racemic)", "values": [{"measurement": "IC50", "setting": "[1]; Homo sapiens, HCT-116, 48 h", "result": 22.6, "unit": "µM"}, {"measurement": "IC50", "setting": "[2]; Homo sapiens, HeLa, 48 h", "result": 22.4, "unit": "µM"}, {"measurement": "IC50", "setting": "[3]; Homo sapiens, MCF7, 48 h", "result": "> 50", "unit": "µM"}]}, {"smiles": "CCOC(=O)C[C@@H]1CSC[C@]1(C(=O)OCC)n1cnc2c(Cl)ncnc21", "note": "(racemic)", "values": [{"measurement": "IC50", "setting": "[1]; Homo sapiens, HCT-116, 48 h", "result": 19.4, "unit": "µM"}, {"measurement": "IC50", "setting": "[2]; Homo sapiens, HeLa, 48 h", "result": 12.5, "unit": "µM"}, {"measurement": "IC50", "setting": "[3]; Homo sapiens, MCF7, 48 h", "result": 43.5, "unit": "µM"}]}, {"smiles": "CCOC(=O)C[C@H]1CSC[C@]1(C(=O)OCC)n1cnc2cnc(Cl)nc21", "note": "(racemic)", "values": [{"measurement": "IC50", "setting": "[1]; Homo sapiens, HCT-116, 48 h", "result": "> 50", "unit": "µM"}, {"measurement": "IC50", "setting": "[2]; Homo sapiens, HeLa, 48 h", "result": "> 50", "unit": "µM"}, {"measurement": "IC50", "setting": "[3]; Homo sapiens, MCF7, 48 h", "result": "> 50", "unit": "µM"}]}, {"smiles": "CCOC(=O)C[C@H]1CSC[C@]1(C(=O)OCC)n1cnc2c(Cl)nc(Cl)nc21", "values": [{"measurement": "IC50", "setting": "[1]; hct-116", "result": 4.16, "unit": "µM"}, {"measurement": "IC50", "setting": "[2]; hela", "result": 7.43, "unit": "µM"}, {"measurement": "IC50", "setting": "[3]; mcf7", "result": 5.82, "unit": "µM"}, {"measurement": "IC50", "setting": "[4]", "result": "> 50", "unit": "µM"}, {"measurement": "IC50", "setting": "[5]; hepg2", "result": "> 50", "unit": "µM"}, {"measurement": "IC50", "setting": "[6]; panc-1", "result": 27.5, "unit": "µM"}]}, {"smiles": "CCOC(=O)C[C@H]1CSC[C@]1(C(=O)OCC)n1cnc2c(N3CCCC3)ncnc21", "note": "(racemic)", "values": [{"measurement": "IC50", "setting": "[1]; Homo sapiens, HCT-116, 48 h", "result": "> 50", "unit": "µM"}, {"measurement": "IC50", "setting": "[2]; Homo sapiens, HeLa, 48 h", "result": "> 50", "unit": "µM"}, {"measurement": "IC50", "setting": "[3]; Homo sapiens, MCF7, 48 h", "result": "> 50", "unit": "µM"}]}, {"smiles": "CCOC(=O)C[C@@H]1CSC[C@]1(C(=O)OC(C)C)n1cnc2c(Cl)ncnc21", "note": "(racemic)", "values": [{"measurement": "IC50", "setting": "[1]; Homo sapiens, HCT-116, 48 h", "result": 38.2, "unit": "µM"}, {"measurement": "IC50", "setting": "[2]; Homo sapiens, HeLa, 48 h", "result": 13.6, "unit": "µM"}, {"measurement": "IC50", "setting": "[3]; Homo sapiens, MCF7, 48 h", "result": 44.8, "unit": "µM"}]}, {"smiles": "CCOC(=O)C[C@H]1CSC[C@]1(C(=O)OCC)n1cnc2c(OC)ncnc21", "note": "(racemic)", "values": [{"measurement": "IC50", "setting": "[1]; Homo sapiens, HCT-116, 48 h", "result": "> 50", "unit": "µM"}, {"measurement": "IC50", "setting": "[2]; Homo sapiens, HeLa, 48 h", "result": "> 50", "unit": "µM"}, {"measurement": "IC50", "setting": "[3]; Homo sapiens, MCF7, 48 h", "result": "> 50", "unit": "µM"}]}, {"smiles": "CCOC(=O)C[C@H]1CSC[C@]1(C(=O)OCC)n1cnc2c(N(CC)CC)ncnc21", "note": "(racemic)", "values": [{"measurement": "IC50", "setting": "[1]; Homo sapiens, HCT-116, 48 h", "result": "> 50", "unit": "µM"}, {"measurement": "IC50", "setting": "[2]; Homo sapiens, HeLa, 48 h", "result": "> 50", "unit": "µM"}, {"measurement": "IC50", "setting": "[3]; Homo sapiens, MCF7, 48 h", "result": "> 50", "unit": "µM"}]}, {"smiles": "CCOC(=O)C[C@@H]1CSC[C@]1(C(=O)OCC)n1cnc2cnc(Cl)nc21", "note": "(racemic)", "values": [{"measurement": "IC50", "setting": "[1]; Homo sapiens, HCT-116, 48 h", "result": "> 50", "unit": "µM"}, {"measurement": "IC50", "setting": "[2]; Homo sapiens, HeLa, 48 h", "result": "> 50", "unit": "µM"}, {"measurement": "IC50", "setting": "[3]; Homo sapiens, MCF7, 48 h", "result": "> 50", "unit": "µM"}]}, {"smiles": "CCOC(=O)C[C@H]1CSC[C@]1(C(=O)OCC)n1cnc2c(-c3ccccc3)ncnc21", "note": "(racemic)", "values": [{"measurement": "IC50", "setting": "[1]; Homo sapiens, HCT-116, 48 h", "result": 17.3, "unit": "µM"}, {"measurement": "IC50", "setting": "[2]; Homo sapiens, HeLa, 48 h", "result": 26.2, "unit": "µM"}, {"measurement": "IC50", "setting": "[3]; Homo sapiens, MCF7, 48 h", "result": "> 50", "unit": "µM"}]}, {"smiles": "CCOC(=O)C[C@@H]1CSC[C@]1(C(=O)OCC)n1cnc2c(Cl)nc(Cl)nc21", "note": "(racemic)", "values": [{"measurement": "IC50", "setting": "[1]; Homo sapiens, HCT-116, 48 h", "result": 6.89, "unit": "µM"}, {"measurement": "IC50", "setting": "[2]; Homo sapiens, HeLa, 48 h", "result": 9.5, "unit": "µM"}, {"measurement": "IC50", "setting": "[3]; Homo sapiens, MCF7, 48 h", "result": 4.06, "unit": "µM"}]}, {"smiles": "O=c1[nH]cc(F)c(=O)[nH]1", "note": "[FLUOROURACIL]", "values": [{"measurement": "IC50", "setting": "[1]; Homo sapiens, HCT-116, 48 h", "result": 8.75, "unit": "µM"}, {"measurement": "IC50", "setting": "[2]; Homo sapiens, HeLa, 48 h", "result": 9.75, "unit": "µM"}, {"measurement": "IC50", "setting": "[3]; Homo sapiens, MCF7, 48 h", "result": 11.6, "unit": "µM"}, {"measurement": "IC50", "setting": "[5]; Homo sapiens, HepG2, 48 h", "result": 12.9, "unit": "µM"}, {"measurement": "IC50", "setting": "[6]; Homo sapiens, PANC-1, 48 h", "result": 44.1, "unit": "µM"}]}, {"smiles": "CCOC(=O)C[C@@H]1CSC[C@]1(C(=O)OCC)n1cnc2c(N3CCCCC3)nc(Cl)nc21", "note": "(racemic)", "values": [{"measurement": "IC50", "setting": "[1]; Homo sapiens, HCT-116, 48 h", "result": "> 50", "unit": "µM"}, {"measurement": "IC50", "setting": "[2]; Homo sapiens, HeLa, 48 h", "result": "> 50", "unit": "µM"}, {"measurement": "IC50", "setting": "[3]; Homo sapiens, MCF7, 48 h", "result": 34, "unit": "µM"}]}, {"smiles": "CCOC(=O)C[C@@H]1CSC[C@]1(C(=O)OCC)n1cnc2c(N3CCOCC3)ncnc21", "note": "(racemic)", "values": [{"measurement": "IC50", "setting": "[1]; Homo sapiens, HCT-116, 48 h", "result": "> 50", "unit": "µM"}, {"measurement": "IC50", "setting": "[2]; Homo sapiens, HeLa, 48 h", "result": "> 50", "unit": "µM"}, {"measurement": "IC50", "setting": "[3]; Homo sapiens, MCF7, 48 h", "result": "> 50", "unit": "µM"}]}, {"smiles": "CCCSc1ncnc2c1ncn2[C@@]1(C(=O)OCC)CSC[C@@H]1CC(=O)OCC", "note": "(racemic)", "values": [{"measurement": "IC50", "setting": "[1]; Homo sapiens, HCT-116, 48 h", "result": 25.9, "unit": "µM"}, {"measurement": "IC50", "setting": "[2]; Homo sapiens, HeLa, 48 h", "result": 37.2, "unit": "µM"}, {"measurement": "IC50", "setting": "[3]; Homo sapiens, MCF7, 48 h", "result": 30.9, "unit": "µM"}]}, {"smiles": "CCOC(=O)C[C@@H]1CSC[C@]1(C(=O)OCC)n1cnc2c(N3CCCC3)ncnc21", "note": "(racemic)", "values": [{"measurement": "IC50", "setting": "[1]; Homo sapiens, HCT-116, 48 h", "result": "> 50", "unit": "µM"}, {"measurement": "IC50", "setting": "[2]; Homo sapiens, HeLa, 48 h", "result": "> 50", "unit": "µM"}, {"measurement": "IC50", "setting": "[3]; Homo sapiens, MCF7, 48 h", "result": "> 50", "unit": "µM"}]}, {"smiles": "CCOC(=O)C[C@H]1C[S+]([O-])C[C@]1(C(=O)OCC)n1cnc2c(Cl)nc(Cl)nc21", "note": "(stereo partly specified)", "values": [{"measurement": "IC50", "setting": "[1]; Homo sapiens, HCT-116, 48 h", "result": 17.1, "unit": "µM"}, {"measurement": "IC50", "setting": "[2]; Homo sapiens, HeLa, 48 h", "result": 10.5, "unit": "µM"}, {"measurement": "IC50", "setting": "[3]; Homo sapiens, MCF7, 48 h", "result": 25.9, "unit": "µM"}]}, {"smiles": "CCOC(=O)C[C@@H]1CSC[C@]1(C(=O)OCC)n1cnc2c(OCc3ccccc3)ncnc21", "note": "(racemic)", "values": [{"measurement": "IC50", "setting": "[1]; Homo sapiens, HCT-116, 48 h", "result": "> 50", "unit": "µM"}, {"measurement": "IC50", "setting": "[2]; Homo sapiens, HeLa, 48 h", "result": "> 50", "unit": "µM"}, {"measurement": "IC50", "setting": "[3]; Homo sapiens, MCF7, 48 h", "result": "> 50", "unit": "µM"}]}, {"smiles": "CCOC(=O)C[C@@H]1CSC[C@]1(C(=O)OCC)n1cnc2c(Br)ncnc21", "note": "(racemic)", "values": [{"measurement": "IC50", "setting": "[1]; Homo sapiens, HCT-116, 48 h", "result": "> 50", "unit": "µM"}, {"measurement": "IC50", "setting": "[2]; Homo sapiens, HeLa, 48 h", "result": 49.6, "unit": "µM"}, {"measurement": "IC50", "setting": "[3]; Homo sapiens, MCF7, 48 h", "result": "> 50", "unit": "µM"}]}, {"smiles": "CCOC(=O)C[C@@H]1CSC[C@]1(C(=O)OCC)n1cnc2c(N(CC)CC)ncnc21", "note": "(racemic)", "values": [{"measurement": "IC50", "setting": "[1]; Homo sapiens, HCT-116, 48 h", "result": 41.5, "unit": "µM"}, {"measurement": "IC50", "setting": "[2]; Homo sapiens, HeLa, 48 h", "result": "> 50", "unit": "µM"}, {"measurement": "IC50", "setting": "[3]; Homo sapiens, MCF7, 48 h", "result": "> 50", "unit": "µM"}]}]}
